# Key:
# [1] = In vivo absorption of 4-ASA (serum and urine) in healthy volunteers; conditions: for Highest serum levels recalculated to treatment of the whole body, passive and active side: versus 4-ASA perorally in tuberculosis treatment
# [2] = In vivo dermal absorption of 5-ASA (serum and urine) in healthy volunteers
# Method: Serum concentrations and the amount excreted in urine of 5-ASA and the 5-ASA metabolite: […] The study was performed as an open study, divided into the following parts: Part I: 2 volunteers, normal skin, single dose. Part IA: 1 volunteer, stripped skin and 1 volunteer, normal skin and occlusion, single dose. Part IB: 1 volunteer, stripped skin and occlusion, single dose. Part II: 6 volunteers, stripped skin day 1, and occlusion day 1 and day 8, multiple doses. Part I, IA and IB: 0.5 g 5% 5-ASA cream was applied to one forearm of the volunteer and blood samples were taken at intervals for 6 hours from both arms. 24 hour urine samples were collected. […] Blood and urine were collected as described above on day 1 and 8. […] Clinical chemistry tests showing the state of the patient (blood status, liver and kidney function, etc.) were performed before and after the study.
# [3] = test system: psoriasis and contact dermatitis; assay: Conclusion of clinical testing (psoriasis and contact dermatitis); format: in vivo, patients; conditions: active formulations
# Method: 1. Patients with wide-spread psoriasis receiving systemic treatment with methotrexate, retinoids or topical treatment with dithranol or tar-preparations. An area of 5×5 cm^2 was used for treatment with compositions 1, 2 and 3 in an increasing concentration. A total of 5 patients were treated on in-patient basis, and the results were evaluated 2-3 times a week.
# 2. In 3 out of 5 other patients treated with 5-ASA cream under occulsion with a thin plastic film a dramatic effect was seen after 4-6 days.
# 3. 5% 5-ASA cream and placebo cream was compared in a randomized, double-blind, bilaterial trial with 5 psoriatic in-patients. Two contralateral psoriasis plaques of the same severity were treated for one week with the 5-ASA cream and placebo cream, respectively, with the concomitant use of an occulsive dressing.
# 4. 5% 4-ASA cream and placebo cream were compared in a randomized, double blind, bilateral trial with 10 psoriasis out-patients. […]
# Ten patients with known nickel allergy and 15 patients with known allergy to other compounds were tested with 5% 5-ASA cream and placebo cream in a randomized, double blind, bilateral trial. […] The study areas were occluded with Finn chambers for 48 hours, and the patients' symptoms were recorded. After 72 hours, the patch test reactions were evaluated and the patients' symptoms recorded.
# psoriasis plaques = assay: Randomized, bilateral trial of 5% 5-ASA cream vs placebo, 48 psoriasis patients; format: in vivo
# Method: Objective: To compare 5% 5-ASA cream with placebo cream in psoriasis patients.
# 5% 5-ASA cream and placebo cream were compared in a randomized, bilateral trial with 48 psoriasis patients (24 hospitalized and 24 out-patients). Two contralateral psoriasis plaques (5×5 cm^2 -10×10 cm^2) of the same severity were treated 3 times daily for two weeks (occulsion at night) with the 5-ASA and placebo creams, respectively.
# Any reported adverse reactions were noted.
# The differences between the "active side" (treated with 5-ASA) and the "placebo side" were statistically tested by a binomial distribution test.
# nickel allergy = assay: Contact dermatitis/allergy test, patients with nickel allergy; format: in vivo; conditions: 5% 5-ASA cream vs placebo; after 72 hours
# Method: (§1) Ten patients with known nickel allergy and 15 patients with known allergy to other compounds were tested with 5% 5-ASA cream and placebo cream in a randomized, double blind, bilateral trial. The allergen was applied on two 1×1 cm^2 areas and the study creams were then applied on the left and right 2×2 cm^2 study areas, respectively. The study areas were occluded with Finn chambers for 48 hours, and the patients' symptoms were recorded. After 72 hours, the patch test reactions were evaluated and the patients' symptoms recorded.
# [4] = test system: allergy to other compounds; assay: Contact dermatitis/allergy test, patients with allergy to other compounds; format: in vivo; conditions: 5% 5-ASA cream vs placebo
# Method: as §1
# [5] = In vitro dermal absorption in Franz Diffusion cells; format: in vitro ADME, human; conditions: for Absorbed amounts, 5-ASA versus prodrug No. 350 / Detection of unchanged prodrug after penetration of the skin / Production of 5-ASA in free form after absorption: human skin in vitro
# Method: Franz Diffusion cells (FDC) are systems for the measurements of percutaneous absorption by the finite dose technique. Human skin is mounted in specially constructed diffusion chambers (FDC), and the skin is batched from below by a reservoir solution. 3×10 μl solution (1 mg/ml) of the following compounds were applied to human skin in Franz diffusion cells (0.636 cm^2) and kept at 37° C. by thermostatic control: Compound 1=5-ASA […] Samples were taken from the reservoir at intervals for 76 hours and analyzed by HPLC for 5-ASA and the prodrugs themselves.
# rat = conditions: intravenously; cited from earlier work
# [6] = chronic inflammatory bowel disease; cited from earlier work
# [7] = human, serum, topical or ocular, 25 mg
# [8] = % of dose through the skin during 76 hours, 3×10 μl of 1 mg/ml, 37° C.
# [9] = human, in vivo, topical or ocular
smiles,measurement,setting,value
"CC(=O)Nc1ccc(C(=O)O)c(O)c1 [Ac-4-ASA, N-acetyl-4-aminosalicylic acid]","Highest serum levels recalculated to treatment of the whole body, passive and active side",[1],within the values reported after use of 4-ASA perorally in tuberculosis treatment
same,Amount in urine,[1]; versus peroral administration,very small amounts in urine
"CC(=O)Nc1ccc(O)c(C(=O)O)c1 [Ac-5-ASA, 2-Hydroxy-5-acetamidobenzoic acid]",Amount in urine versus peroral or rectal administration,"[2]; human, in vivo",much lower in percentages than after peroral or rectal administration
same,"Maximum serum concentration recalculated to treatment of the whole body, active side","[2]; human, in vivo",2-3 times the values reported in studies with SASP
same,"Maximum serum concentration recalculated to treatment of the whole body, passive side","[2]; human, in vivo",within the values reported in studies with salazosulphapyridine (SASP)
same,Recovery in urine,"[2]; human, in vivo",Only Ac-5-ASA were recovered in urine
same,Median serum concentration,"[2]; human, in vivo, topical or ocular, 0.25 h",13.5 ng/mL
same,Median serum concentration,"[2]; human, in vivo, topical or ocular, 0.5 h",7.0 ng/mL
same,Median serum concentration,"[2]; human, in vivo, topical or ocular, 0.75 h",10.3 ng/mL
same,Median serum concentration,"[2]; human, in vivo, topical or ocular, 1.5 h",14.6 ng/mL
same,Median serum concentration,"[2]; human, in vivo, topical or ocular, 3 h",8.2 ng/mL
"Nc1ccc(C(=O)O)c(O)c1 [Example 4-ASA, 4-aminosalicylic acid]",Efficacy vs placebo in comparative trials,[3],more efficient than placebo
same,concentration at 0.25 h,[1]; [7],24 ng/mL
same,concentration at 0.5 h,[1]; [7],43 ng/mL
same,concentration at 1.5 h,[1]; [7],16 ng/mL
same,"Highest serum levels recalculated to treatment of the whole body, passive and active side",[1],within the values reported after use of 4-ASA perorally in tuberculosis treatment
"Nc1ccc(O)c(C(=O)O)c1 [Example 5-ASA, 5-aminosalicylic acid, reference compound]",Effect compared to placebo (conclusion),psoriasis plaques,A significant effect
same,Patients showing no difference regarding pruritus,nickel allergy,two
same,Patients with preference to 5-ASA regarding pruritus,nickel allergy,Seven out of 10
same,"Patients with preference to 5-ASA side, investigator's opinion and patch tests",nickel allergy,9 out of 10
same,Preference of patients vs placebo,[4],about twice as many patients preferred the 5-ASA treatment in comparison with placebo
same,Efficacy vs placebo in comparative trials,[3],more efficient than placebo
same,"% absorbed, compound measured: 5-ASA",[5]; [8],7.8-15.6%
same,"Absorbed amounts, 5-ASA versus prodrug No. 350",[5],of the same size
same,Absorption through normal skin,"[2]; 5% 5-ASA cream, normal skin",No absorption through normal skin was detected
same,Absorption through occluded skin,"[2]; 5% 5-ASA cream, occluded skin, late",Small amounts
same,Absorption through both stripped and occluded skin,"[2]; 5% 5-ASA cream, stripped and occluded skin",larger amounts
same,Absorption through stripped skin,"[2]; 5% 5-ASA cream, stripped skin, early",Small amounts
same,"Maximum serum concentration recalculated to treatment of the whole body, active side","[2]; human, in vivo",2-3 times the values reported in studies with SASP
same,"Maximum serum concentration recalculated to treatment of the whole body, passive side","[2]; human, in vivo",within the values reported in studies with salazosulphapyridine (SASP)
same,concentration at 0.25 h,[2]; [9],19.4 ng/mL
same,concentration at 0.5 h,[2]; [9],8.3 ng/mL
same,concentration at 0.75 h,[2]; [9],7.3 ng/mL
same,concentration at 1 h,[2]; [9],8.2 ng/mL
same,concentration at 1.5 h,[2]; [9],7.1 ng/mL
same,concentration at 2 h,[2]; [9],3.9 ng/mL
same,concentration at 4 h,[2]; [9],17.2 ng/mL
same,concentration at 6 h,[2]; [9],22.9 ng/mL
same,Nephrotoxic dose,rat,300 to 900 mg/kg
"CCOC(=O)c1cc(N)ccc1O [Prodrug No. 345, Ethyl 2-hydroxy-5-aminobenzoate]","% absorbed, compound measured: 5-ASA",[5]; [8],18.2-24.0%
same,"% absorbed, compound measured: prodrug itself",[5]; [8],36.1-45.4%
same,"Enhanced absorption, % of the dose","[5]; as much as, 76 hours",≤ 70 % of the dose
same,Detection of unchanged prodrug after penetration of the skin,[5],detected unchanged after penetration of the skin
same,Production of 5-ASA in free form after absorption,[5],could produce 5-ASA in free form after absorption through human skin in vitro
"CCOC(=O)c1cc(N)ccc1OC(C)=O [Prodrug No. 350, Ethyl 2-acetoxy-5-aminobenzoate]","% absorbed, compound measured: 5-ASA",[5]; [8],11.9-16.8%
same,"Absorbed amounts, 5-ASA versus prodrug No. 350",[5],of the same size
same,Detection of unchanged prodrug after penetration of the skin,[5],could not be detected unchanged
same,Production of 5-ASA in free form after absorption,[5],could produce 5-ASA in free form after absorption through human skin in vitro
Nc1ccc(S(=O)(=O)Nc2ccccn2)cc1 [Sulphapyridine],Side effects after treatment with salazosulphapyridine,[6],responsible for the side effects reported after treatment with salazosulphapyridine
